Laboratory results published in ChEMBL document CHEMBL5236638, “Optimization of First-in-Class Dual-Acting FFAR1/FFAR4 Allosteric Modulators with Novel Mode of Action” (ACS Med Chem Lett, 2022).
pEC50: −log10 of the molar value.

Tests used:
Format in all cases: cell-based
[1] = target: T1, Free fatty acid receptor 4 (Homo sapiens) (UniProt Q5NUL3); experiment: Agonist activity at N-terminal FLAG tagged human FFAR4 transfected in African green monkey COS-7 cells assessed as accumulation of inositol phosphate at 10 uM incubated for 90 mins by TopCount NXT counter based analysis relative to control
T1 sequence (whole entry): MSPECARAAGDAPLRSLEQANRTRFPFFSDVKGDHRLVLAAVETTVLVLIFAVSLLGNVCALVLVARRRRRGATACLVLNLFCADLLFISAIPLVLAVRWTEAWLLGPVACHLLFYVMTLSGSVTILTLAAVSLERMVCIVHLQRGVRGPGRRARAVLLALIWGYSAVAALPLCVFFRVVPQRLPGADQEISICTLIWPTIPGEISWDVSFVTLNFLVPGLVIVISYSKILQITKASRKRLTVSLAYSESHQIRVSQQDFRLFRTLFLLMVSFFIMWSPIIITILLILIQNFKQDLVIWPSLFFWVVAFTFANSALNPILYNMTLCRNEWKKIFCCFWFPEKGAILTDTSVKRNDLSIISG

[2] = target: T2, Free fatty acid receptor 4 (Homo sapiens, UniProt Q5NUL3); experiment: Agonist activity at N-terminal FLAG tagged human FFAR4 transfected in African green monkey COS-7 cells assessed as accumulation of inositol phosphate incubated for 90 mins by TopCount NXT counter based analysis
T2 sequence (Q5NUL3 whole entry): T1 sequence (whole entry)

[3] = target: Free fatty acid receptor 1 (Homo sapiens, UniProt O14842); experiment: Agonist activity at N-terminal FLAG tagged human FFAR1 transfected in African green monkey COS-7 cells assessed as accumulation of inositol phosphate incubated for 90 mins by TopCount NXT counter based analysis
Sequence of Free fatty acid receptor 1 (O14842 whole entry): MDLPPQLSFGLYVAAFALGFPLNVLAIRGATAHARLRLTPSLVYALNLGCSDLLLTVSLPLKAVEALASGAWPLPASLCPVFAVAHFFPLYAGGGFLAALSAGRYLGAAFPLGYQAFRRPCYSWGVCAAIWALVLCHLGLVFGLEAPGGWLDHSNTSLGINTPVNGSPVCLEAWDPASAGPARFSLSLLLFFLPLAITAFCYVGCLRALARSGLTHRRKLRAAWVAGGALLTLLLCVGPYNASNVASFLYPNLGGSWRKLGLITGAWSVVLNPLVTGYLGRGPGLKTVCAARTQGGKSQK

| Compound | Emax [1] | pEC50 [2] | pEC50 [3] | Emax ([1]; filed as agonist) |
| --- | --- | --- | --- | --- |
| Cc1cc(OCc2nc(N)nc(NCCc3ccccc3OC(F)(F)F)n2)cc(N2CCCC2=O)c1 | 29% | 7.43 | 7.70 |  |
| Cc1cc(OCc2nc(N)nc(NCCc3ccc(C)cc3C)n2)cc(N2CCCC2=O)c1 | 37% | 7.03 | 7.15 |  |
| Cc1ccc(Nc2nc(N)nc(COc3cc(N4CCCC4=O)cc(C(C)(C)C)c3)n2)cc1Cl |  | 6.19 |  |  |
| Cc1ccc(Nc2nc(N)nc(COc3ccc4c(C)cc(=O)oc4c3)n2)cc1 | 39% | 5.92 | 5.75 |  |
| Cc1cc(OCc2nc(N)nc(NCCc3ccc(Cl)cc3)n2)cc(N2CCCC2=O)c1 |  |  | 6.71 |  |
| Cc1ccc(Nc2nc(N)nc(COc3cc(N4CCCC4=O)ccc3F)n2)cc1Cl | 27% | 4.86 | 4.48 |  |
| Cc1ccc(Nc2nc(N)nc(COc3ccc4c5c(c(=O)oc4c3)CCC5)n2)cc1 |  |  | 5.65 |  |
| Cc1cc(OCc2nc(N)nc(NCC3(c4cccc(Cl)c4)CC3)n2)cc(N2CCCC2=O)c1 |  |  | 7.32 |  |
| Cc1cc(OCc2nc(N)nc(NCCc3cc(C)ccc3F)n2)cc(N2CCCC2=O)c1 |  | 6.41 | 8.52 | 40% |
| CCc1cc(=O)oc2cc(OCc3nc(N)nc(Nc4ccc(C)cc4)n3)ccc12 | 37% | 5.88 | 5.58 |  |
| COc1ccc(F)cc1CCNc1nc(N)nc(COc2cc(C)cc(N3CCCC3=O)c2)n1 | 30% | 6.87 | 6.33 |  |
| Cc1ccc(Nc2nc(N)nc(COc3cc(N4CCCC4=O)cc(C(F)(F)F)c3)n2)cc1Cl |  |  | 5.50 |  |
| COc1ccccc1CCNc1nc(N)nc(COc2cc(C)cc(N3CCCC3=O)c2)n1 | 23% | 7.85 | 7.47 |  |
| Cc1cc(OCc2nc(N)nc(NCCc3ccc(Cl)cc3Cl)n2)cc(N2CCCC2=O)c1 | 18% | 7.60 | 7.36 |  |
| Cc1cc(OCc2nc(N)nc(NCCc3ccc(Cl)c(C)c3)n2)cc(N2CCCC2=O)c1 | 30% | 8.40 | 7.85 |  |
| Cc1ccc(Nc2nc(N)nc(COc3cccc(N4CCCS4(=O)=O)c3)n2)cc1Cl |  |  | 5.01 |  |
| Cc1ccc(Nc2nc(N)nc(COc3cc(N4CCCC4=O)ccc3C)n2)cc1Cl |  | 4.74 | 5.13 | 43% |

| Compound | Emax [1] | pEC50 [2] | pEC50 [3] | Emax ([1]; filed as agonist) |
| --- | --- | --- | --- | --- |
| Cc1cc(OCc2nc(N)nc(NCCc3ccc(C)c(Cl)c3)n2)cc(N2CCCC2=O)c1 | 32% | 8.10 | 8.15 |  |
| Cc1cc(=O)oc2cc(OCc3nc(N)nc(Nc4cccc(Cl)c4)n3)ccc12 |  |  | 5.95 |  |
| Cc1cc(OCc2nc(N)nc(NCCc3cccc(S(F)(F)(F)(F)F)c3)n2)cc(N2CCCC2=O)c1 |  |  | 7.49 | 95% |
| Cc1cc(=O)oc2cc(OCc3nc(N)nc(Nc4ccc(C(C)C)cc4)n3)ccc12 |  | 5.92 | 6.34 | 75% |
| CCCc1cc(=O)oc2cc(OCc3nc(N)nc(Nc4ccc(C)cc4)n3)ccc12 |  |  | 5.54 |  |
| Cc1cc(OCc2nc(N)nc(NCCc3ccc(Cl)c(Cl)c3)n2)cc(N2CCCC2=O)c1 | 23% | 7.26 | 7.80 |  |
| COc1ccc(CCNc2nc(N)nc(COc3cc(C)cc(N4CCCC4=O)c3)n2)cc1 | 34% | 6.42 | 5.83 |  |
| Cc1cc(Nc2nc(N)nc(COc3ccc4c(C)cc(=O)oc4c3)n2)ccc1Cl |  | 6.22 | 6.62 | 48% |
| COc1cccc(CCNc2nc(N)nc(COc3cc(C)cc(N4CCCC4=O)c3)n2)c1 |  | 7.85 | 7.92 | 46% |
| Cc1cc(=O)oc2cc(OCc3nc(N)nc(Nc4ccc5ccccc5c4)n3)ccc12 |  |  | 6.15 |  |
| Cc1cc(OCc2nc(N)nc(NCCc3ccccc3OC(F)F)n2)cc(N2CCCC2=O)c1 | 30% | 6.75 | 6.97 |  |
| Cc1cc(OCc2nc(N)nc(NCCc3ccccc3)n2)cc(N2CCCC2=O)c1 | 38% | 7.48 | 7.60 |  |
| Cc1cc(OCc2nc(N)nc(NCC(c3c(F)cccc3F)N(C)C)n2)cc(N2CCCC2=O)c1 (stereo not drawn) |  |  | 5.13 |  |
| Cc1ccc(Nc2nc(N)nc(COc3cccc(N4CCCC4=O)c3C)n2)cc1Cl |  | 4.84 | 4.96 | 46% |
| Cc1cc(OCc2nc(N)nc(NCCc3cc(F)ccc3F)n2)cc(N2CCCC2=O)c1 | 36% | 8.30 | 7.80 |  |
| Cc1ccc(Nc2nc(N)nc(COc3ccc4ccc(=O)oc4c3)n2)cc1 |  | 5.36 | 5.89 | 49% |
